Source: US20050215548A1 (Cyclacel Limited, priority 2002, published 2005)
Read-outs that look alike come from different tables or passages of the source.

Columns and labels:
HDM2 [1] = target: T1, HDM2 (Homo sapiens, UniProt Q00987); assay: Fluorescence polarisation competitive HDM2 binding assay
T1 construct: Recombinant HDM2 (1.5 μg per well) in TBS-BSA buffer
In short: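 Recombinant HDM2 (1.5 μg/well) was preincubated 5 min at room temperature with serially diluted compound in 50 mM Tris pH 7.4, 150 mM NaCl, 0.1% BSA, 5% DMSO final. Fluorescein-labelled p53 peptide (0.2 μM) was then added for 45 min. Polarisation was read at 485/520 nm and IC50 derived from dose-response curves.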

AGS [2] = assay: 72-h MTT cytotoxicity assay, AGS; assay type: cell-based; conditions: Homo sapiens, 72-h MTT, Table 1, read-out: IC50 Anti-proliferative effect on cell line AGS
Protocol: (§1) The fluorescence polarisation competitive HDM2 binding assay described in Example 3 was used. Furthermore, the anti-proliferative potency of the compounds against three human tumour cell lines with different genetic make-up was also determined. […] The cell lines used were as follows: AGS, gastric adenocarcinoma, wild-type p53; H1299, large cell lung carcinoma, p53 null, low HDM2; SJSA-1, primitive multipotential bone sarcoma, wild-type p53, overexpressed HDM2.
(§2) Representative bisarylsulfonamide compounds were tested on a panel of transformed and non-transformed human cell lines, using a standard 72-h MTT cytotoxicity assay [Haselsberger K et al, ibid].

H1299 [3] = assay: 72-h MTT cytotoxicity assay, H1299; assay type: cell-based; conditions: Homo sapiens, NCI-H1299; 72-h MTT; Table 1; read-out: IC50 Anti-proliferative effect on cell line H 1299
Protocol: as §1, §2

SJSA-1 [4] = assay: 72-h MTT cytotoxicity assay, SJSA-1; assay type: cell-based; conditions: Homo sapiens, SJSA-1; 72-h MTT; Table 1; read-out: IC50 Anti-proliferative effect on cell line SJSA-1
Protocol: as §1, §2

[5] = test system: E2F transcription factors; assay: E2F reporter gene assay (A549-derived luciferase reporter cell line); assay type: cell-based; conditions: Homo sapiens
Protocol: A similar system to the p53 reporter assay described above was used, with the exception that it was designed to be responsive to E2F transcription factors rather than p53. An A549-derived cell line stably transfected with an E2F response element and a luciferase reporter gene was created. The genetic expression cassette construct used was from Clontech (Mercury™ Cell Cycle Profiling System). Assays were carried out as described above.
Representative bisarylsulfonamides were tested in the E2F gene reporter assay described in Example 6.

p53 = p53 reporter gene assay (U2OS-derived luciferase reporter cell line); conditions: for Fold induction of luciferase activity: compared to basal luciferase activity, 16-h time point, at concentration of maximal induction; for Concentration (test compound concentration at which the p53 induction was maximal): p53 reporter, U2OS-derived cell line
Protocol: A dual assay assessing both cell viability and p53 response was employed. A U2OS-derived cell line stably transfected with a p53 response element and a luciferase reporter gene was created. […] After seeding of cells into 96-well tissue culture plates, treatment with test compounds, and incubation for the desired duration, the cell proliferation reagent WST-1 (Roche Molecular Biochemicals) was used to determine cell viability. The Bright-Glo™ Luciferase Assay System (Promega) was used to measure luciferase activity. The data from the cell viability assay was used to normalise data from the luciferase assay.

[6] = test system: key proteins in the HDM2 pathway; assay: SDS-PAGE and immunoblotting of key proteins in the HDM2 pathway; assay type: cell-based, human; conditions: negative control: MCF7, 13.5 μM; 68/69: MCF7 and H1299 at five times IC50 of 69; 49: AGS, SJSA1, H1299
From the text: Equal amounts of cell lysate were separated by SDS-PAGE and analysed by immunoblotting using the indicated antibodies. An estimation of the extent of cell rounding is indicated above each lane. […] (B) The effect of compound 2 on the levels of the cell cycle proteins in AGS cells (wild-type 53). […] Equal amounts of cell lysate were separated by SDS-PAGE and analysed by immunoblotting using the indicated antibodies. An estimation of the extent of cell rounding is indicated above each lane. (C) The effect of negative control compound (refer Example 10), compound 2, cisplatin, and anisomycin on the levels of key proteins in MCF7 cells. […] Cisplatinum and anisomycin (a transcription inhibitor) treatments were with 50 μM or 37 μM, respectively. Cells were harvested at various time points; afterwards lysates were prepared and separated by SDS-PAGE and analysed by immunoblotting. The proteins detected are indicated. The extent of rounded or floating cells and the percentage viable cells were assessed. […] Equal amounts of cell lysate were separated by SDS-PAGE and analysed by immunoblotting using a range of antibodies. An estimation of the extent of cell rounding is indicated above each lane. […] SJSA1 cells were treated with 5 times [IC50] of compound 2 and collected at the indicated time points. Equal amounts of cell lysate were separated by SDS-PAGE and analysed by immunoblotting using a range of antibodies. An estimation of the extent of cell rounding is indicated above each lane.
Many types of cellular stress converge on the p53 pathway and induce its activity. […] The biological effect of bisarylsufonamides on cellular level was studies using representative compounds (mainly compound 2) and number of cell lines with different HDM2 and p53 status. These were overexpressing Hdm2 (SJSA1—osteosarcoma), wild type p53 and normal levels of HDM2 (AGS—gastric adenocarcinoma, MCF7—breast adenocarcinoma), or p53 null, low levels of HDM2 (H1299—large cell lung carcinoma).
Cells were lysed and equal amounts were analysed by SDS-polyacrylamide gel electrophoresis (SDS-PAGE) and immunoblotting.

HDM2 [7] = target: T1, HDM2; conditions: literature, cited from earlier work; for affinity for HDM2 / inhibition of the p53/HDM2 complex: background
AGS [8] = assay: Combination treatment with cisplatin or etoposide, MTT, AGS; assay type: cell-based, human; conditions: Homo sapiens, MTT, 72 hours, Table 6, read-out: IC50, agent alone
From the text: (§3) It is well established that radiotherapy and most current forms of chemotherapy cause extensive genetic damage and induction of the p53-dependent apoptotic pathway, which determines the important role of this tumor suppressor protein in cancer therapy. HDM2, on the other hand, as a transcriptional product and negative regulator pf p53, would destabilise p53 and diminish its pro-apoptotic function. Inhibitors of the p53-HDM2 negative feedback loop (e.g. compounds disrupting the p53-HDM2 complex) are expected to synergise with cytotoxic agents for induction of p53 and subsequent apoptosis. […] Both chemotherapeutic agents were used in the concentration range of 100-0.19 μM.

H1299 [9] = assay: Combination treatment with cisplatin or etoposide, MTT, H1299; assay type: cell-based, human; conditions: Homo sapiens, NCI-H1299, MTT, 72 hours, Table 6, read-out: IC50, agent alone
From the text: as §3

SJSA-1 [10] = assay: Combination treatment with cisplatin or etoposide, MTT, SJSA-1; assay type: cell-based, human; conditions: Homo sapiens, MTT, 72 hours, Table 6, read-out: IC50, agent alone
From the text: as §3

carcinoma cell lines = assay: 72-h MTT panel, average carcinomas; assay type: cell-based; conditions: Homo sapiens, read-out: Anti-proliferative activity, 72-h MTT IC50, Average carcinomas
Protocol: as §2
This differential selectivity further supports the notion that the bisarylsulfonamides modulate cellular HDM2 function. It is known that HDM2 amplification is particularly common in soft tissue sarcomas and osteosarcomas [Momand J et al, ibid; Bartel F, Meye A, Wurl P, Kappler M, Bache M, Lautenschlager C, Grunbaum U, Schmidt H, Taubert H; Int. J. Cancer 2001; 95: 168-175].

[11] = fluorescence polarisation format, Table 1, read-out: IC50 In vitro competitive HDM2 binding assay
[12] = after 3-h treatment with test compounds, read-out: IC50 E2F reporter, Non-synchronised cells
[13] = after 3-h treatment, synchronisation with 0.3 mM mimosine for 24 h, followed by wash-out, read-out: IC50 E2F reporter, Synchronised cells
[14] = fluorescence polarisation assay, Table 3, read-out: In vitro competitive HDM2 binding assay IC50

T1 sequence (Q00987 whole entry): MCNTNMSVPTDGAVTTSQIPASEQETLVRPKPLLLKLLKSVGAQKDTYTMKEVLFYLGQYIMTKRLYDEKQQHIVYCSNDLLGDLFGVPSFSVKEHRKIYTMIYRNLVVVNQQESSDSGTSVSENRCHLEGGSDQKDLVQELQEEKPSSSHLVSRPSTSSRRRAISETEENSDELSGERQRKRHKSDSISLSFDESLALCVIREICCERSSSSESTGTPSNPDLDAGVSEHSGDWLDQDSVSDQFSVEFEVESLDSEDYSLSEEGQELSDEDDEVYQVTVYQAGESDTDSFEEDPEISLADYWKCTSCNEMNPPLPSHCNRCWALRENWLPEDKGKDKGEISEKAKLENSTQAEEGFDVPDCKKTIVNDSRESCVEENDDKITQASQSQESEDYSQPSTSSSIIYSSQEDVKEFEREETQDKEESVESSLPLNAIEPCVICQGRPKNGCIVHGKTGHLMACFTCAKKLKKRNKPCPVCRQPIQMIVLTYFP

Compound | IC50 (HDM2 [1]; [11]) [µM] | IC50 (AGS [2]) [µM] | IC50 (H1299 [3]) [µM] | IC50 (SJSA-1 [4]) [µM] | IC50 [5, 12] [µM] | IC50 (HDM2 [1]; [14]) [µM] | Fold induction of luciferase activity (p53) [fold] | Concentration (test compound concentration at which the p53 induction was maximal) (p53) [µM] | other results
O=[N+]([O-])c1cc(S(=O)(=O)Nc2ccc(O)cc2)sc1Cl [Compound 5, 5-Chloro-4-nitrothiophene-2-sulfonic acid (4-hydroxyphenyl)amide] | 105 ± 26 | 2.2 ± 0.6 | 8.7 ± 2.2 | 24 ± 2.1 | 73.3 ± 33.4 | – | – | – | IC50 [5, 13]: 72 ± 31 µM
O=[N+]([O-])c1cc(S(=O)(=O)Nc2cc(Cl)cc(Cl)c2)sc1Cl [Compound 39, 5-Chloro-4-nitrothiophene-2-sulfonic acid (3,5-dichlorophenyl)-amide] | 46.1 ± 3.4 | 4.9 ± 1.6 | 12.1 ± 4 | 27.2 ± 0.4 | 90 | 46.1 ± 3.4 | 64 | 15 | –
O=[N+]([O-])c1cc(S(=O)(=O)Nc2cc(F)cc(F)c2)sc1Cl [Compound 40, 5-Chloro-4-nitrothiophene-2-sulfonic acid (3,5-difluorophenyl)-amide] | 59.6 ± 10.5 | 4 ± 0.3 | 10.6 ± 0.4 | 26.4 ± 0.2 | 99.5 | 59.6 ± 10.9 | 68 | 13 | –
O=S(=O)(Nc1ccc(C(F)(F)F)cc1)c1cnc(Cl)c(Br)c1 [Compound 41, 5-Bromo-6-chloropyridine-3-sulfonic acid (4-trifluoromethylphenyl)amide] | 258 ± 12 | 31 ± 2 | 28 | 53 ± 3 | 76.6 | – | – | – | IC50 [5, 13]: 84 µM
O=[N+]([O-])c1cc(S(=O)(=O)NCc2ccc(C(F)(F)F)cc2)sc1Cl [Compound 46, 5-Chloro-4-nitrothiophene-2-sulfonic acid 4-trifluoromethylbenzylamide] | 11.1 ± 1.7 | 1.3 ± 0.5 | 3.4 ± 0.5 | 4.4 ± 1.1 | 25.5 ± 3.1 | 11.1 ± 1.7 | 55 | 6 | –
O=[N+]([O-])c1cc(S(=O)(=O)NCCc2c[nH]c3ccccc23)sc1Cl [Compound 48, 5-Chloro-4-nitrothiophene-2-sulfonic acid [2-(1H-indol-3-yl)-ethyl]amide] | 25.3 ± 4.6 | 2.6 ± 1.4 | 3.6 ± 0.9 | 3.1 ± 1 | 31.3 ± 2.6 | 25.3 ± 4.6 | 43.5 | 5.5 | –
COc1ccc(NS(=O)(=O)c2cc([N+](=O)[O-])c(Cl)s2)cc1 [Compound 61, 5-Chloro-4-nitro-thiophene-2-sulfonic acid (4-methoxy-phenyl)-amide] | 45 ± 14 | 1.8 ± 0.4 | 2.7 ± 0.4 | 2.8 ± 0.2 | 34.6 ± 22.9 | 45 ± 14 | 34 | 4.8 | –
O=[N+]([O-])c1cc(S(=O)(=O)NCc2ccccc2)sc1Cl [Compound 64, 5-Chloro-4-nitro-thiophene-2-sulfonic acid benzylamide] | 18 | 3.6 ± 0.2 | 6.3 ± 2.1 | 7.3 ± 1.7 | 44.6 ± 2.3 | – | – | – | –
O=[N+]([O-])c1ccc(S(=O)(=O)Nc2ccc(Cl)cc2)s1 [Compound 68, 5-Nitro-thiophene-2-sulfonic acid (4-chloro-phenyl)-amide] | – | 76 | – | – | – | – | – | – | IC50 (HDM2 [1]; text of Example 10, refer Table 1, read-out: competitive inhibition IC50): 431 µM; changes in protein levels and cell morphology [6]: Little change in protein levels
O=[N+]([O-])c1cc(S(=O)(=O)Nc2nc3ccccc3[nH]2)ccc1Cl [Compound 83, N-(1H-Benzoimidazol-2-yl)-4-chloro-3-nitro-benzenesulfonamide] | 119 ± 43 | 0.9 ± 0.1 | 1.4 ± 0.2 | 2.3 ± 0.9 | 29.4 ± 6 | 119 ± 42.5 | 10 | 5 | –
O=C(O)COc1ccc(C(=O)C=Cc2ccc(Cl)c(Cl)c2)cc1 [Compound B-1, {4-[3-(3,4-dichloro-phenyl)-acryloyl]-phenoxy}-acetic acid] | – | – | – | – | – | – | – | – | affinity for HDM2 / inhibition of the p53/HDM2 complex (HDM2 [7]): high micromolar affinity
COc1cc([C@@H]2c3cc4c(cc3[C@@H](O[C@@H]3O[C@@H]5CO[C@@H](C)O[C@H]5[C@H](O)[C@H]3O)[C@H]3COC(=O)[C@H]23)OCO4)cc(OC)c1O [Etoposide, reference compound] | – | – | – | – | – | – | – | – | IC50 (AGS [8]): 0.28 µM; IC50 (H1299 [9]): 1.3 µM; IC50 (SJSA-1 [10]): 16 µM
CC[C@H](CO)Nc1nc(NCc2ccccc2)c2ncn(C(C)C)c2n1 [Roscovitine, reference compound] | – | – | – | – | – | – | – | – | IC50 (carcinoma cell lines): 11.2 ± 3 µM
O=S(=O)(NCc1ccc(C(F)(F)F)cc1)c1cc(Br)c(Cl)s1 [negative control compound, 4-bromo-5-chloro-thiophene-2-sulfonic acid 4-trifluoromethyl-benzylamide, reference compound] | – | – | – | – | – | – | – | – | inhibition of the HDM2-p53 interaction in vitro (HDM2 [1]): does not inhibit; changes in protein levels and cell morphology [6]: did not induce any notable changes in the protein levels tested or cell morphology
FMDYWEGL | – | – | – | – | – | – | – | – | affinity for HDM2 / inhibition of the p53/HDM2 complex (HDM2 [7]): micromolar affinity
MPRFMDYWEGLN | – | – | – | – | – | – | – | – | affinity for HDM2 / inhibition of the p53/HDM2 complex (HDM2 [7]): sub-micromolar affinity; fold more potent than the corresponding wild-type p53-derived peptide (HDM2 [7]; versus 16QETFSDLWKLLF27): 28 fold
TFSDLW (UniProt P04637 18-23, looked up, fragment) [p53(18-23)] | – | – | – | – | – | – | – | – | affinity for HDM2 / inhibition of the p53/HDM2 complex (HDM2 [7]): little affinity
chlorofusin | – | – | – | – | – | – | – | – | affinity for HDM2 / inhibition of the p53/HDM2 complex (HDM2 [7]): micromolar inhibitor
